Counter-ions that a name gives are not always drawn.
Target: T1, [^3 H] GBR12935 binding in rat strialal crude membrane (Rattus norvegicus, UniProt P23977)
T1 construct: from tissue; host or cells: corpus striatum of Wistar male rat, crude membrane
Assay: [^3 H] GBR12935 binding in rat striatal crude membrane
Set-up: species or system rat (Wistar male)
Conditions: 1 nM [^3 H] GBR12935, rat striatal crude membrane; for IC50: 4° C., 80 minutes
Protocol: After a cold 50 mM Tris-citrate buffer (pH 7.4, including 120 mM NaCl and 4 mM MgCl2) was added to a corpus striatum taken out of a Wistar male rat aged 12-13 weeks (while keeping on ice) to homogenize the resultant mixture, the homogenate was subjected twice to centrifugation under chilling for 20 minutes at 48,000 g. The final sedimentation residue thus obtained was suspended again in the same buffer as that used above to conserve the suspension at -80° C.
After thawing this frozen suspension, the thawed suspension was diluted to one thousandth of the amount of the tissue with the same buffer as that used above. To 0.8 ml of this crude membrane sample, were added [^3 H] GBR12935 (final concentration: 1 nM) and individual test substances and amantadine which is in clinical use at present (developing the concentration within a range of from 10^-3 to 10^-9 M) to 1 ml in total. Each of the resulting sample mixtures was incubated at 4° C. for 80 minutes in a plastic tube. After the incubation, the mixture was filtered by means of suction on a glass filter (Whatman GP/B) soaked in a 0.1% BSA, and the filter was washed three times with 3 ml of cold 0.9% NaCl. The thus-obtained filter was placed in a vial, and 10 ml of Aquazol-2 were added to conserve the filter overnight. Thereafter, the radioactivity of the sample was measured by a liquid scintillation counter. An IC50 value and a Hill coefficient were determined from the obtained uptake inhibition curve as to each of the test samples.

T1 sequence (P23977 whole entry): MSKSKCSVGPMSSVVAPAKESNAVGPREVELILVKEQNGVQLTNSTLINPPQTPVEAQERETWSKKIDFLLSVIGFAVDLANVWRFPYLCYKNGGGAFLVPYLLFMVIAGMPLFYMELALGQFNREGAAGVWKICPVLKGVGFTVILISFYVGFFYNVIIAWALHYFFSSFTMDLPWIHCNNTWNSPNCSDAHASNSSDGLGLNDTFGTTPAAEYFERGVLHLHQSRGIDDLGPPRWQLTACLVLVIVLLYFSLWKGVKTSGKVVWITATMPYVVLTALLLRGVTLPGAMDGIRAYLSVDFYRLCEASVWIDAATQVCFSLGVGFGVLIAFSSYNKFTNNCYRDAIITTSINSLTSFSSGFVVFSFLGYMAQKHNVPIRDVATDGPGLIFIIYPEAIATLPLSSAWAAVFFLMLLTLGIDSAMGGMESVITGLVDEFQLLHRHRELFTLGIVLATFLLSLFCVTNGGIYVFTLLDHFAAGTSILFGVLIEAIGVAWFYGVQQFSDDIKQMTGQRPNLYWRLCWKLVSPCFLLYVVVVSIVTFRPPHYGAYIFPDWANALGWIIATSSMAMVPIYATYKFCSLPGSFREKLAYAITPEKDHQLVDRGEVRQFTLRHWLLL

With `OC(CNc1ccccc1)CN1CCN(CCCC(c2ccc(F)cc2)c2ccc(F)cc2)CC1` (single isomer, unassigned; (+)) [Compound 16, (+)-1-[4,4-Bis(4-fluoro-phenyl)butyl]-4-(2-hydroxy-3-phenylaminopropyl)piperazinedihydrochloride] the “Hill coefficient (nH)” value was 0.57 ± 0.04 and the IC50 was 0.002 ± 0.00053 µM.

For `OC(CNc1ccccc1)CN1CCN(CCCC(c2ccc(F)cc2)c2ccc(F)cc2)CC1` (single isomer, unassigned; (-)) [Compound 15, (-)-1-[4,4-Bis(4-fluoro-phenyl)butyl]-4-(2-hydroxy-3-phenylaminopropyl)piperazinedihydrochloride], the “Hill coefficient (nH)” value was 0.72 ± 0.05 and the IC50 was 0.002 ± 0.0001 µM.

With `NC12CC3CC(CC(C3)C1)C2` [Amantadine, amantadine, reference compound] the “Hill coefficient (nH)” value was 1.36 ± 0.08 and the IC50 (amantadine line in μM) was 819 ± 30.9 µM.

In the case of `OC(CNc1ccccc1)CN1CCN(C(c2ccc(F)cc2)c2ccc(F)cc2)CC1` (centres unmarked) [Compound 2, 1-[Bis(4-fluorophenyl)methyl]-4-(2-hydroxy-3-phenylamino-propyl)piperazine dihydro-chloride], the “Hill coefficient (nH)” value is reported as 0.66 ± 0.05 and the IC50 is reported as 0.02 ± 0.003 µM.

For `Cl.Cl.OC(CNc1ccc(F)cc1)CN1CCN(CCCC(c2ccc(F)cc2)c2ccc(F)cc2)CC1` (centres unmarked) [Compound 9, 1-[4,4-Bis(4-fluorophenyl)-butyl]-4-[3-(4-fluorophenyl-amino)-2-hydroxypropyl]-piperazine dihydrochloride], the “Hill coefficient (nH)” value was 0.74 ± 0.01 and the IC50 was 0.004 ± 0.00023 µM.

With `Cl.Cl.OC(CNc1ccc(Cl)cc1)CN1CCN(CCCC(c2ccc(F)cc2)c2ccc(F)cc2)CC1` (centres unmarked) [Compound 10, 1-[4,4-Bis(4-fluorophenyl)-butyl]-4-[3-(4-chlorophenyl-amino)-2-hydroxypropyl]-piperazine dihydrochloride] the “Hill coefficient (nH)” value was 0.82 ± 0.03 and the IC50 was 0.003 ± 0.00032 µM.

`COc1cc(NCC(O)CN2CCN(CCCC(c3ccc(F)cc3)c3ccc(F)cc3)CC2)cc(OC)c1OC.O=C(O)/C=C\C(=O)O.O=C(O)/C=C\C(=O)O` (centres unmarked) [Compound 11, 1-[4,4-Bis(4-fluorophenyl)-butyl]-4-[2-hydroxy-3-(3,4,5-trimethoxyphenylamino)propyl]-piperazine dimaleate] was tested, and the “Hill coefficient (nH)” value was 0.79 ± 0.04 and the IC50 was 0.043 ± 0.00532 µM.

In the case of `OC(CNc1ccc(Cl)c(Cl)c1)CN1CCN(CCCC(c2ccc(F)cc2)c2ccc(F)cc2)CC1` (centres unmarked) [Compound 12, 1-[4,4-Bis(4-fluorophenyl)-buyl]-4-[3-(3,4-dichloro-phenylamino)-2-hydroxy-propyl]piperazinedihydrochloride], the “Hill coefficient (nH)” value is reported as 0.74 ± 0.03 and the IC50 is reported as 0.012 ± 0.00072 µM.

With `COc1ccc(NCC(O)CN2CCN(CCCC(c3ccc(F)cc3)c3ccc(F)cc3)CC2)cc1.Cl.Cl` (centres unmarked) [Compound 13, 1-[4,4-Bis(4-fluorophenyl)-butyl]-4-(2-hydroxy-3-(4-methoxyphenylamino)propyl]-piperazine dihydrochloride] the “Hill coefficient (nH)” value was 0.52 ± 0.02 and the IC50 was 0.003 ± 0.00016 µM.

For `Cc1ccc(NCC(O)CN2CCN(CCCC(c3ccc(F)cc3)c3ccc(F)cc3)CC2)cc1.Cl.Cl` (centres unmarked) [Compound 14, 1-[4,4-Bis(4-fluorophenyl)-butyl]-4-[2-hydroxy-3-(4-methylphenylamino)propyl]-piperazine dihydrochloride], the “Hill coefficient (nH)” value was 0.65 ± 0.03 and the IC50 was 0.004 ± 0.00041 µM.

In the case of `O=C(O)/C=C\C(=O)O.O=C(O)/C=C\C(=O)O.O=C(O)/C=C\C(=O)O.OC(CNc1ccncc1)CN1CCN(CCCC(c2ccc(F)cc2)c2ccc(F)cc2)CC1` (centres unmarked) [Compound 17, 1-[4,4-Bis(4-fluorophenyl)-butyl]-4-[2-hydroxy-3-(4-pyridylamino)propyl]-piperazine trimaleate], the “Hill coefficient (nH)” value is reported as 0.74 ± 0.04 and the IC50 is reported as 0.034 ± 0.002 µM.

`OC(CNc1ccccc1)CN1CCN(CCC(c2ccc(F)cc2)c2ccc(F)cc2)CC1` (centres unmarked) [Compound 18, 1-[3,3-Bis(4-fluorophenyl)-propyl]-4-(2-hydroxy-3-phenylaminopropyl)piperazinedihydrochloride] was tested, and the “Hill coefficient (nH)” value was 0.67 ± 0.04 and the IC50 was 0.007 ± 0.00065 µM.

`OC(CNc1ccccc1)CN1CCN(CC(c2ccccc2)c2ccccc2)CC1` (centres unmarked) [Compound 19, 1-(2,2-Diphenylethyl)-4-(2-hydroxy-3-phenylamino-propyl)piperazinedihydrochloride] was tested, and the “Hill coefficient (nH)” value was 0.76 ± 0.02 and the IC50 was 0.028 ± 0.002 µM.

`Cl.Cl.O=[N+]([O-])c1ccc(NCC(O)CN2CCN(CCCC(c3ccc(F)cc3)c3ccc(F)cc3)CC2)cc1` (centres unmarked) [Compound 20, 1-[4,4-Bis(4-fluorophenyl)-butyl]-4-[2-hydroxy-3-(4-nitrophenylamino)propyl]-piperazine dihydrochloride] was tested, and the “Hill coefficient (nH)” value was 0.69 ± 0.04 and the IC50 was 0.008 ± 0.0005 µM.

`OC(CNc1ccccc1)CN1CCN(CCCCC(c2ccc(F)cc2)c2ccc(F)cc2)CC1` (centres unmarked) [Compound 21, 1-[5,5-Bis(4-fluorophenyl)-pentyl]-4-(2-hydroxy-3-phenylaminopropyl)piperazinedihydrochloride] was tested, and the “Hill coefficient (nH)” value was 0.89 ± 0.07 and the IC50 was 0.006 ± 0.00032 µM.

`CC(C)(C)c1cc(NCC(O)CN2CCN(CCCC(c3ccc(F)cc3)c3ccc(F)cc3)CC2)cc(C(C)(C)C)c1O` (centres unmarked) [Compound 22, 1-[4,4-Bis(4-fluorophenyl)-butyl]-4-[3-(3,5-di-tert-butyl-4-hydroxyphenylamino)-2-hydroxypropyl]piperazinetrimaleate] was tested, and the “Hill coefficient (nH)” value was 0.78 ± 0.07 and the IC50 was 0.087 ± 0.007 µM.

In the case of `Nc1ccc(NCC(O)CN2CCN(CCCC(c3ccc(F)cc3)c3ccc(F)cc3)CC2)cc1` (centres unmarked) [Compound 23, 1-[3-(4-Aminophenylamino)-2-hydroxypropyl]-4-(4,4-bis(4-fluorophenyl)butyl]piperazinetrimaleate], the “Hill coefficient (nH)” value is reported as 0.64 ± 0.09 and the IC50 is reported as 0.037 ± 0.009 µM.

`CN(C)c1ccc(NCC(O)CN2CCN(CCCC(c3ccc(F)cc3)c3ccc(F)cc3)CC2)cc1` (centres unmarked) [Compound 24, 1-[4,4-Bis(4-fluorophenyl)-butyl]-4-[3-(4-dimethyl-aminophenylamino)-2-hydroxy-propyl]piperazine dimaleate] was tested, and the “Hill coefficient (nH)” value was 0.94 ± 0.10 and the IC50 was 0.109 ± 0.019 µM.

For `O=C(O)/C=C\C(=O)O.O=C(O)/C=C\C(=O)O.Oc1ccc(NCC(O)CN2CCN(CCCC(c3ccc(F)cc3)c3ccc(F)cc3)CC2)cc1` (centres unmarked) [Compound 25, 1-[4,4-Bis(4-fluorophenyl)-butyl]-4-[2-hydroxy-3-(4-hydroxyphenylamino)propyl]-piperazine dimaleate], the “Hill coefficient (nH)” value was 0.63 ± 0.09 and the IC50 was 0.01 ± 0.003 µM.
